Results as given in PubChem BioAssay AID248 (DTP/NCI, 2004).
Values joined by “and” are separate entries in the source; they are usually repeats but may differ in a detail not shown here. Equal values may be shown once. Inconclusive results and toxic doses are left out.

Test system: L1210 leukemia ip in BDF1 mice, survival T/C
Test: NCI In Vivo Anticancer Drug Screen. Data for tumor model L1210 Leukemia (intraperitoneal) in B6D2F1 (BDF1) mice
Conditions: endpoint: mean survival time, higher = longer survival
Procedure, shortened: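 Antitumor effect is assessed in tumor-bearing animals. Survival in the compound arm is compared with a vehicle-dosed control arm and expressed as their quotient.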

[1] = dose: 20.0 mg/kg/injection, schedule: Q01DX001 (ip), vehicle: saline
[2] = dose: 25.0 mg/kg/injection, schedule: Q04DX002 (ip), vehicle: saline
[3] = dose: 50.0 mg/kg/injection, schedule: Q04DX002 (ip), vehicle: saline
[4] = dose: 100.0 mg/kg/injection, schedule: Q04DX002 (ip), vehicle: saline
[5] = dose: 200.0 mg/kg/injection, schedule: Q04DX003 (ip), vehicle: Klucel (hydroxypropylcellulose) (HPC)
[6] = dose: 400.0 mg/kg/injection, schedule: Q04DX003 (ip), vehicle: Klucel (hydroxypropylcellulose) (HPC)

## CC[C@@]1(O)C(=O)OCc2c1cc1n(c2=O)Cc2cc3cc(OC)ccc3nc2-1
dose: 0.36 mg/kg/injection, schedule: Q01DX001 (ip), vehicle: saline
  T/C: 114 % of control
dose: 0.55 mg/kg/injection, schedule: Q01DX001 (ip), vehicle: saline
  T/C: 122 % of control
dose: 0.83 mg/kg/injection, schedule: Q01DX001 (ip), vehicle: saline
  T/C: 120 % of control
dose: 0.97 mg/kg/injection, schedule: Q01DX009 (ip), vehicle: saline
  T/C: 203 % of control
dose: 1.4 mg/kg/injection, schedule: Q01DX009 (ip), vehicle: saline
  T/C: 225 % of control
dose: 2.2 mg/kg/injection, schedule: Q01DX009 (ip), vehicle: saline
  T/C: 97 % of control
dose: 2.5 mg/kg/injection, schedule: Q01DX001 (ip), vehicle: saline
  T/C: 162 % of control
dose: 4.4 mg/kg/injection, schedule: Q01DX001 (ip), vehicle: saline
  T/C: 160 % of control
dose: 5.0 mg/kg/injection, schedule: Q01DX001 (ip), vehicle: saline
  T/C: 176 % of control
dose: 6.6 mg/kg/injection, schedule: Q01DX001 (ip), vehicle: saline
  T/C: 178 % of control
dose: 10.0 mg/kg/injection, schedule: Q01DX001 (ip), vehicle: saline
  T/C: 172 % of control and 250 % of control
dose: 15.0 mg/kg/injection, schedule: Q01DX001 (ip), vehicle: saline
  T/C: 122 % of control
[1]
  T/C: 112 % of control
dose: 36.0 micrograms/kg/injection, schedule: Q01DX009 (ip), vehicle: saline
  T/C: 95 % of control
dose: 56.0 micrograms/kg/injection, schedule: Q01DX009 (ip), vehicle: saline
  T/C: 104 % of control
dose: 84.0 micrograms/kg/injection, schedule: Q01DX009 (ip), vehicle: saline
  T/C: 115 % of control
dose: 127.0 micrograms/kg/injection, schedule: Q01DX009 (ip), vehicle: saline
  T/C: 121 % of control
dose: 287.0 micrograms/kg/injection, schedule: Q01DX009 (ip), vehicle: saline
  T/C: 123 % of control
dose: 430.0 micrograms/kg/injection, schedule: Q01DX009 (ip), vehicle: saline
  T/C: 117 % of control
dose: 646.0 micrograms/kg/injection, schedule: Q01DX009 (ip), vehicle: saline
  T/C: 150 % of control

## Cc1nc(N)ncc1CCC1OCCO1
[2]
  T/C: 91 % of control
[3]
  T/C: 100 % of control
dose: 100.0 mg/kg/injection, schedule: Q04DX002 (ip), vehicle: Klucel (hydroxypropylcellulose) (HPC)
  T/C: 175 % of control
[4]
  T/C: 107 % of control
dose: 200.0 mg/kg/injection, schedule: Q04DX002 (ip), vehicle: saline
  T/C: 103 % of control

## C#CCNc1ccccc1
dose: 100.0 mg/kg/injection, schedule: Q04DX002 (sc), vehicle: olive oil, sesame oil, peanut oil
  T/C: 102 % of control
dose: 200.0 mg/kg/injection, schedule: Q04DX002 (sc), vehicle: olive oil, sesame oil, peanut oil
  T/C: 102 % of control
dose: 400.0 mg/kg/injection, schedule: Q04DX002 (sc), vehicle: olive oil, sesame oil, peanut oil
  T/C: 109 % of control

## Cc1ccccc1C1(c2ccccc2C)OC(=O)c2ccccc21
dose: 100.0 mg/kg/injection, schedule: Q01DX009 (ip), vehicle: saline with Tween-80
  T/C: 93 % of control
dose: 200.0 mg/kg/injection, schedule: Q01DX009 (ip), vehicle: saline with Tween-80
  T/C: 89 % of control
dose: 400.0 mg/kg/injection, schedule: Q01DX009 (ip), vehicle: saline with Tween-80
  T/C: 90 % of control

## CC(C)(C)C1=CC(=O)C=C(C(C)(C)C)C1=O
dose: 100.0 mg/kg/injection, schedule: Q01DX001 (ip), vehicle: Klucel (hydroxypropylcellulose) (HPC)
  T/C: 89 % of control
dose: 200.0 mg/kg/injection, schedule: Q01DX001 (ip), vehicle: Klucel (hydroxypropylcellulose) (HPC)
  T/C: 92 % of control
[5]
  T/C: 87 % of control
dose: 400.0 mg/kg/injection, schedule: Q01DX001 (ip), vehicle: Klucel (hydroxypropylcellulose) (HPC)
  T/C: 100 % of control
[6]
  T/C: 89 % of control

## c1ccc(P(=NC2CCCC2)(c2ccccc2)c2ccccc2)cc1
dose: 100.0 mg/kg/injection, schedule: Q04DX003 (ip), vehicle: saline with Tween-80
  T/C: 89 % of control
dose: 200.0 mg/kg/injection, schedule: Q04DX003 (ip), vehicle: saline with Tween-80
  T/C: 92 % of control
dose: 400.0 mg/kg/injection, schedule: Q04DX003 (ip), vehicle: saline with Tween-80
  T/C: 87 % of control

## COC(=O)[C@H]1[C@H]2C[C@@H]3c4[nH]c5cc(OC)ccc5c4CCN3C[C@H]2C[C@@H](OC(=O)/C=C/c2cc(OC)c(OC)c(OC)c2)[C@@H]1OC
dose: 3.12 mg/kg/injection, schedule: Q01DX009 (ip), vehicle: Klucel (hydroxypropylcellulose) (HPC)
  T/C: 96 % of control
dose: 6.25 mg/kg/injection, schedule: Q01DX009 (ip), vehicle: Klucel (hydroxypropylcellulose) (HPC)
  T/C: 96 % of control
dose: 12.5 mg/kg/injection, schedule: Q01DX009 (ip), vehicle: Klucel (hydroxypropylcellulose) (HPC)
  T/C: 105 % of control
dose: 25.0 mg/kg/injection, schedule: Q01DX009 (ip), vehicle: Klucel (hydroxypropylcellulose) (HPC)
  T/C: 96 % of control
dose: 25.0 mg/kg/injection, schedule: Q04DX003 (ip), vehicle: Klucel (hydroxypropylcellulose) (HPC)
  T/C: 111 % of control
dose: 50.0 mg/kg/injection, schedule: Q01DX009 (ip), vehicle: Klucel (hydroxypropylcellulose) (HPC)
  T/C: 100 % of control
dose: 50.0 mg/kg/injection, schedule: Q04DX003 (ip), vehicle: Klucel (hydroxypropylcellulose) (HPC)
  T/C: 103 % of control

## CCCC[N+](C)(CC(C)C)C1CCCCCCC1 (stereo not drawn)
dose: 75.0 mg/kg/injection, schedule: Q01DX001 (ip), vehicle: carboxymethylcellulose (CMC)
  T/C: 104 % of control
dose: 75.0 mg/kg/injection, schedule: Q01DX001 (ip), vehicle: saline
  T/C: 96 % of control
dose: 150.0 mg/kg/injection, schedule: Q01DX001 (ip), vehicle: saline
  T/C: 93 % of control

## CCCCC(=O)N/N=C/c1cc(OCC)c(OCC)cc1OCC
dose: 100.0 mg/kg/injection, schedule: Q01DX001 (ip), vehicle: carboxymethylcellulose (CMC)
  T/C: 96 % of control
dose: 200.0 mg/kg/injection, schedule: Q01DX001 (ip), vehicle: carboxymethylcellulose (CMC)
  T/C: 98 % of control
dose: 400.0 mg/kg/injection, schedule: Q01DX001 (ip), vehicle: carboxymethylcellulose (CMC)
  T/C: 91 % of control

## COc1ccc(OC)c(NC(=S)N/N=C(\C)c2ccc(O)c(C)c2)c1
dose: 12.5 mg/kg/injection, schedule: Q04DX002 (ip), vehicle: Klucel (hydroxypropylcellulose) (HPC)
  T/C: 97 % of control
dose: 25.0 mg/kg/injection, schedule: Q04DX002 (ip), vehicle: Klucel (hydroxypropylcellulose) (HPC)
  T/C: 115 % of control

## CC(C)N=C(NC(C)C)N1CC1
dose: 10.0 mg/kg/injection, schedule: Q01DX009 (ip), vehicle: saline
  T/C: 106 % of control
[1]
  T/C: 104 % of control
dose: 20.0 mg/kg/injection, schedule: Q01DX009 (ip), vehicle: saline
  T/C: 105 % of control
dose: 40.0 mg/kg/injection, schedule: Q01DX001 (ip), vehicle: saline
  T/C: 104 % of control
dose: 40.0 mg/kg/injection, schedule: Q01DX009 (ip), vehicle: saline
  T/C: 100 % of control

## COc1ccc(C(=O)CC(C)C(=O)O)c(O)c1C (stereo not drawn)
dose: 100.0 mg/kg/injection, schedule: Q04DX003 (ip), vehicle: Klucel (hydroxypropylcellulose) (HPC)
  T/C: 95 % of control
[5]
  T/C: 98 % of control
[6]
  T/C: 96 % of control

## CCCCCCN
dose: 25.0 mg/kg/injection, schedule: Q01DX001 (ip), vehicle: saline
  T/C: 97 % of control
dose: 25.0 mg/kg/injection, schedule: Q01DX009 (ip), vehicle: saline
  T/C: 93 % of control and 105 % of control
[2]
  T/C: 97 % of control and 100 % of control
dose: 25.0 mg/kg/injection, schedule: Q04DX003 (ip), vehicle: saline
  T/C: 103 % of control
dose: 50.0 mg/kg/injection, schedule: Q01DX001 (ip), vehicle: saline
  T/C: 111 % of control
dose: 50.0 mg/kg/injection, schedule: Q01DX009 (ip), vehicle: saline
  T/C: 101 % of control and 104 % of control
[3]
  T/C: 97 % of control and 103 % of control
dose: 50.0 mg/kg/injection, schedule: Q04DX003 (ip), vehicle: saline
  T/C: 114 % of control
dose: 100.0 mg/kg/injection, schedule: Q01DX001 (ip), vehicle: saline
  T/C: 101 % of control
dose: 100.0 mg/kg/injection, schedule: Q01DX009 (ip), vehicle: saline
  T/C: 102 % of control
dose: 100.0 mg/kg/injection, schedule: Q04DX003 (ip), vehicle: saline
  T/C: 110 % of control

## CCCCCCCCCN1CCCC(OC(=O)N(C)C)C1 (stereo not drawn)
[2]
  T/C: 103 % of control
[3]
  T/C: 103 % of control
[4]
  T/C: 100 % of control

## N=C(N)c1cccc(NC(=O)Nc2cccc(C(=N)N)c2)c1
dose: 15.0 mg/kg/injection, schedule: Q01DX Z (ip), vehicle: saline
  T/C: 104 % of control
dose: 30.0 mg/kg/injection, schedule: Q01DX Z (ip), vehicle: saline
  T/C: 104 % of control
